Measurements reported in PubChem BioAssay (NCI).
“And” between values parts separate entries of the source, which are not always exact repeats. Identical values can stand only once.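 In this assay, cells in 96-well plates receive the compound at five concentrations for 48 hours. Endpoints are linearly interpolated between the surrounding concentrations. GI50 = concentration required for 50% inhibition of growth. The concentration for full growth arrest is given as TGI.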

How the values were obtained:
Experiment in all cases: growth of human tumour cells (NCI), 48 h
[1] = test system: T-47D breast
[2] = test system: SR leukemia
[3] = test system: COLO 205 colon
[4] = test system: HT29 colon
[5] = test system: TK-10 renal
[6] = test system: NCI-H460 lung
[7] = test system: NCI-H226 lung
[8] = test system: HCT-15 colon
[9] = test system: BT-549 breast
[10] = test system: OVCAR-3 ovarian

SMILES | GI50 [1] [µM] | TGI [1] [µM] | GI50 [2] [µM] | GI50 [3] [µM] | TGI [3] [µM] | GI50 [4] [µM] | TGI [4] | GI50 [5] [µM] | TGI [5] [µM] | GI50 [6] [µM] | TGI [6] [µM] | GI50 [7] [µM] | TGI [7] [µM] | GI50 [8] [µM] | TGI [8] | GI50 [9] [µM] | TGI [9] [µM] | TGI [2] [µM] | GI50 [10] [nM] | TGI [10] [µM]
O=C1c2nsnc2C(=O)c2c(F)c(F)c(F)c(F)c21 | 0.473 | 2.37 | 0.0528 | 0.236 | 0.527 | 0.266 | 0.715 µM | 0.71 | 1.92 | 0.758 | 2.34 | 1.93 | 4.58 | 0.495 | 2 µM | 1.49 | 2.83 | – | – | –
COC1CCN(C(=O)c2cc(Cc3n[nH]c(=O)c4ccccc34)ccc2F)CC1 | 53.6 | > 100 | 21.7 | > 100 | > 100 | > 100 | > 100 µM | > 100 | > 100 | 25.6 | > 100 | 89.2 | > 100 | > 100 | > 100 µM | 28.8 | > 100 | > 100 | 74100 | > 100
COC(=O)[C@]12CC[C@@H](C)[C@H](C)[C@@H]1C1=CC[C@@H]3[C@@]4(C)C(C=O)=C[C@@](C)(COC(C)=O)C4=CC[C@@]3(C)[C@]1(C)CC2 | 3.79 | 27.3 | 2.22 | 2.34 | 5.8 | 3.17 | 11 µM | 9.31 | 21.6 | 3.98 | 15.2 | 6.28 | 22.8 | 3.38 | 12.1 µM | 6.9 | 25.9 | 7.83 | 3540 | 12.2
CN(C)CCNC(=O)C(C)(C)Oc1ccc(C(=O)c2ccc(Cl)cc2)cc1Cl | 5.87 | 24.4 | 3.48 | 4.41 | 3.7 | – | 8.18 µM and 9.21 µM | – | 23.7 | – | 20.4 | – | 29 | 2.71 | 7.12 µM and 11.2 µM | – | 23.9 | > 100 | – | 25.7
O=[N+]([O-])c1ccc(Sc2ncnc3nc[nH]c23)c2nonc12 | 2.09 | > 100 | 0.723 | 2.17 | 4.67 | 3.88 | 20.6 µM | 2.34 | 23.7 | 9.73 | 35.2 | 11.7 | 30.5 | 10.5 | 36.1 µM | 10.3 | 27.4 | 13 | 714 | 16.6
CCOC(=O)c1c(C)n2c(=O)cc(C)c3c(O)c(O)cc1c32 | 9.26 | > 100 | 0.721 | 13.1 | > 100 | 24.5 | > 100 µM | 5.47 | > 100 | 12.9 | > 100 | 9.2 | 93.5 | 2.48 | 51.1 µM | 15.9 | 79.7 | 17 | 1420 | 9.94
C[C@H](Nc1ncnc2nc[nH]c12)c1cc2ccc(F)cc2nc1-c1ccccn1 | 17.2 | 99.5 | 33.4 | > 100 | > 100 | > 100 | > 100 µM | 47.4 | > 100 | > 100 | > 100 | > 89.4 | > 100 | > 100 | > 100 µM | 36.2 | > 100 | > 100 | 34300 | > 100
C=C(C)[C@@H]1CC[C@]2(C(=O)O)CC[C@]3(C)[C@H](CC[C@@H]4[C@@]5(C)C[C@@H](CC#Cc6ccc(C(F)(F)F)cc6)[C@H](O)C(C)(C)[C@@H]5CC[C@]43C)[C@@H]12 | 4.75 | > 100 | 3.23 | 3.72 | > 100 | 3.01 | > 100 µM | 6.11 | > 100 | 3.38 | > 100 | 2.91 | > 100 | 3.95 | > 100 µM | 10.9 | > 100 | > 100 | – | –
COC(=O)C(=O)C(C(=O)C(=O)Nc1nc2ccc(C)cc2s1)c1nc2ccc([N+](=O)[O-])cc2[nH]c1=O (stereo unspecified) | – | > 100 | – | – | – | – | > 100 µM | – | > 100 | – | > 100 | – | > 100 | – | > 100 µM | – | > 100 | > 100 | – | > 100
CCCCCCCCN(CCCCCCCC)CCCCCCNc1cc(OC)cc2cccnc12 | 12.1 | 27.5 | 6.7 | – | – | 3.63 | 15.9 µM | 20.3 | 36 | 8.27 | 21.6 | 17 | 33.7 | 7.68 | 24 µM | 14.7 | 28 | 59.1 | 2010 | 4.09
